# Experimental data as given in publication PMC4120060 (Psychoneuroendocrinology, 2014).
# Tests used:
# [1] = Lumbar CSF OT concentration after OT administration; details: N=6
# [2] = in vivo; cited from earlier work
# [3] = ref Mens et al., 1983; cited from earlier work
# [4] = Plasma OT concentration after OT administration; format: in vivo, rhesus monkeys (Macaca mulatta)
# [5] = humans; four-fold lower intramuscular dose; ref Landgraf, 1985; cited from earlier work
# [6] = in vivo; cited from earlier work; remark: listed apart in the source
Compound,"lumbar CSF OT after IV-OT ([1]; IV 48 IU Syntocinon vs placebo, 0, 60, 120 min)","lumbar CSF OT after IN-OT ([1]; intranasal spray 24 IU Syntocinon vs placebo, 0, 60, 120 min)",passive diffusion of peptide from the plasma to the CSF [2],half-life of OT in the blood [3],"increase in plasma OT after IV-OT, 15 min ([4]; IV bolus 48 IU Syntocinon, 15 min after administration, N=6, RIA)","increase in plasma OT after IV-OT, 60 min ([4]; IV bolus 48 IU Syntocinon, 60 min after administration, N=6, RIA)","plasma OT above baseline after IV-OT, 120 min ([4]; IV bolus 48 IU Syntocinon, 120 min after administration, N=6, RIA) [times]","plasma OT after IN-OT versus placebo ([4]; intranasal spray 24 IU Syntocinon vs placebo, 60 and 120 min, N=6)","increase in plasma OT over baseline after IN-OT ([4]; intranasal spray 24 IU Syntocinon, 60 and 120 min, N=6, RIA) [fold]","plasma OT concentration, intramuscular relative to nasal administration [5] [fold]",CSF OT concentrations after IN-OT spray versus placebo/saline [6],CSF concentration of the peptide after nasal delivery [6]
"CC[C@H](C)[C@@H]1NC(=O)[C@H](Cc2ccc(O)cc2)NC(=O)[C@@H](N)CSSC[C@@H](C(=O)N2CCC[C@H]2C(=O)N[C@@H](CC(C)C)C(=O)NCC(N)=O)NC(=O)[C@H](CC(N)=O)NC(=O)[C@H](CCC(N)=O)NC1=O [OT, oxytocin]",no impact on lumbar CSF concentrations,No significant effect,~ 1%,approximately 2 minutes,thousand fold increase,hundred fold increase,100,significantly increased plasma levels of OT,100,10,higher,
α-melanocyte stimulating hormone,,,,,,,,,,,,increased concentrations in cerebrospinal fluid (CSF) over baseline levels
